# Molecular target: recombinant human CETP protein (Homo sapiens (Human), UniProt P11597)
# Assay: Test of CETP inhibition activity (in vitro, buffer-based)
# Assay type: biochemical
# Details: reconstituted HDL with [14C]-labeled cholesteryl ester, acceptor lipoprotein, 37° C.
# Experimental: Test of CETP Inhibition Activity (In Vitro, Buffer-Based)
# (1) Preparation of Reconstituted HDL
# Cholesterol (1.125 μmol), phosphatidyl choline (4.5 μmol) and [^14C]-labeled cholesteryl ester (2.0 μCi; 40 μl) were taken in a glass test tube and well mixed with a vortex, and dried under a nitrogen gas current so that it formed a thin film. The obtained mixture was dissolved in ethanol (200 μl), which was designated as Solution A. A PBS solution [a mixed solution of Na2HPO4 (30 mM), KH2PO4 (8.8 mM), NaCl (60 mM) and EDTA (pH 7.4; 0.67 mM); 4 ml] was taken in a tube and the reaction solution was vigorously stirred with a vortex under a nitrogen current. The above-described Solution A was gently injected into this mixture with a syringe and the reaction solution was vigorously stirred with a vortex for 5 minutes under a nitrogen current. Sodium cholate ([…]; 0.38 ml) was added to the obtained mixture and the reaction solution was stirred for 2 minutes. ApoA-I protein (3 mg) was added to the obtained mixture and the reaction solution was stirred for 2 minutes. The obtained mixture was adjusted to 5 ml with the PBS solution and then dialyzed with the PBS solution. The obtained mixture was designated as the reconstituted HDL.
# (2) Preparation of Acceptor Lipoprotein
# NaBr was added to the plasma of a healthy person and the density of the mixture was adjusted to 1.019, and the mixture was subjected to density gradient centrifugation (40000 rpm, for 16 hours) to remove the fraction having a density of less than 1.019. NaBr was added to the obtained mixture and the density of the solution was adjusted to 1.063, and the solution was subjected to density gradient centrifugation (40000 rpm, 18 hours) to provide the fraction consisting of IDL (intermediate density lipoprotein) and LDL (1.019<density<1.063). The obtained fraction was dialyzed with the PBS solution. The obtained mixture was designated as the acceptor lipoprotein.
# (3) Measurement of CETP Inhibition Activity
# A recombinant human CETP protein (manufactured by Roar Biomedical Inc.; 4.5 ng), the acceptor lipoprotein described in (2) above (32.5 μg) and 5,5′-dithio-bis-(2-nitrobenzoic acid) (7 mM, 15 μl) were taken in a 96 well plate and the total amount of the mixture was adjusted to 48.5 μl with the PBS solution. The test compound [DMSO solution (concentration: 0.15, 0.5, 1.5, 5, 15, 50, 150 and 500 μM; 1.5 μl] was added to each well and the mixture was incubated in a thermostatic bath at 37° C. for 60 minutes. The reconstituted HDL (50 μl) described in (1) above was added to each well and the mixture was reacted in a thermostatic bath at 37° C. for 60 minutes. The 96 well plate was moved onto ice and a precipitation reagent [a mixed solution of magnesium chloride (60 mM) and 0.1% dextran sulfate [1/1 (v/v)]; 15 μl] was added to each well, and then the mixture was allowed to stand on ice for 15 minutes. The reaction solution (80 μl) in each well was moved to a filter plate and centrifuged at 1500 rpm for 1 minute, and the filtrate which passed through the filter was designated as the HDL fraction and the radioactivity thereof was measured with a scintillation counter. The percentage decrease in radioactivity in the case where the test compound was added in comparison with that in case where the test compound was not added was designated as the percentage CETP inhibition. The IC50 value was calculated from the percentage CETP inhibition.
# recombinant human CETP protein, sequence (P11597 18-493): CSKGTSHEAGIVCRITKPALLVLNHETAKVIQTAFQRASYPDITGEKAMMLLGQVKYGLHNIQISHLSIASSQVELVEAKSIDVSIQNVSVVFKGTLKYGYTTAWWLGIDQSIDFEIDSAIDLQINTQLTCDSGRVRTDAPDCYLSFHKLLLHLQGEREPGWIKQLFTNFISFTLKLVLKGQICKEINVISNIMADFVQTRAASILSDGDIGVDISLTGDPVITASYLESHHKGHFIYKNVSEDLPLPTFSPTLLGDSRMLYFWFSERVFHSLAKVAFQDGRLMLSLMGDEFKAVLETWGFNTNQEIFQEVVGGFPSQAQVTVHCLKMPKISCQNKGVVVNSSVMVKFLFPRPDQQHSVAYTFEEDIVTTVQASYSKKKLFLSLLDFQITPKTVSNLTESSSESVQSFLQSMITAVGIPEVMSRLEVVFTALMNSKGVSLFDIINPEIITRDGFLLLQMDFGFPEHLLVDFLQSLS
row,Compound,IC50
1,"CC1(C)Cc2nc(C3CCN(c4ncc(OCCCCC(=O)O)cn4)CC3)c([C@@H](F)c3ccc(C(F)(F)F)cc3)c(C3CCC(F)(F)CC3)c2[C@@H](O)C1 (single isomer, unassigned) [Example 23, (−)-2-{1-[5-(4-Carboxybutoxyl)pyrimidin-2-yl]piperidin-4-yl}-4-(4,4-difluorocyclohexyl)-3-{fluoro[4-(trifluoromethyl)phenyl]methyl}-7,7-dimethyl-5,6,7,8-tetrahydroquinolin-5-ol]",37 nM
2,"CC(C)Cc1cnc(N2CCC(c3nc4c(c(C5CCC(F)(F)CC5)c3[C@@H](F)c3ccc(C(F)(F)F)cc3)[C@@H](O)CC(C)(C)C4)CC2)nc1 (single isomer, unassigned) [Example 24, (−)-4-(4,4-Difluorocyclohexyl)-3-{fluoro[4-(trifluoromethyl)phenyl]methyl}-7,7-dimethyl-2-{1-[5-(2-methylpropyl)pyrimidin-2-yl]piperidin-4-yl}-5,6,7,8-tetrahydroquinolin-5-ol]",54 nM
3,"CC1(C)Cc2nc(C3CCN(c4ncc(CCCCC(=O)O)cn4)CC3)c([C@@H](F)c3ccc(C(F)(F)F)cc3)c(C3CCC(F)(F)CC3)c2[C@@H](O)C1 (single isomer, unassigned) [Example 25, (−)-2-{1-[5-(4-carboxybutyl)pyrimidine-2-yl]piperidin-4-yl}-4-(4,4-difluorocyclohexyl)-3-{fluoro[4-(trifluoromethyl)phenyl]methyl}-7,7-dimethyl-5,6,7,8-tetrahydroquinoline-5-ol]",19 nM
4,"COCc1cnc(N2CCC(c3nc4c(c(C5CCC(F)(F)CC5)c3[C@@H](F)c3ccc(C(F)(F)F)cc3)[C@@H](O)CC(C)(C)C4)CC2)nc1 (single isomer, unassigned) [Example 27, (−)-4-(4,4-Difluorocyclohexyl)-3-{fluoro[4-(trifluoromethyl)phenyl]methyl}-2-{1-[5-(methoxymethyl)pyrimidin-2-yl]piperidin-4-yl}-7,7-dimethyl-5,6,7,8-tetrahydroquinolin-5-ol]",40 nM
5,"CC(C)COCc1cnc(N2CCC(c3nc4c(c(C5CCC(F)(F)CC5)c3[C@@H](F)c3ccc(C(F)(F)F)cc3)[C@@H](O)CC(C)(C)C4)CC2)nc1 (single isomer, unassigned) [Example 29, (−)-4-(4,4-Difluorocyclohexyl)-3-{fluoro[4-(trifluoromethyl)phenyl]methyl}-7,7-dimethyl-2-(1-{5-[(2-methylpropoxy)methyl]pyrimidin-2-yl}piperidin-4-yl)-5,6,7,8-tetrahydroquinolin-5-ol]",62 nM
6,"CNC(=O)c1cnc(N2CCC(c3nc4c(c(C5CCC(F)(F)CC5)c3[C@@H](F)c3ccc(C(F)(F)F)cc3)[C@@H](O)CC(C)(C)C4)CC2)nc1 (single isomer, unassigned) [Example 30, 4-(4,4-Difluorocyclohexyl)-3-{fluoro[4-(trifluoromethyl)phenyl]methyl}-7,7-dimethyl-2-{1-[5-(methylcarbamoyl)pyrimidin-2-yl]piperidin-4-yl}-5,6,7,8-tetrahydroquinolin-5-ol]",32 nM
7,"CC1(C)Cc2nc(C3CCN(c4ncc(C(=O)N5CCOCC5)cn4)CC3)c([C@@H](F)c3ccc(C(F)(F)F)cc3)c(C3CCC(F)(F)CC3)c2[C@@H](O)C1 (single isomer, unassigned) [Example 32, 4-(4,4-Difluorocyclohexyl)-3-{fluoro[4-(trifluoromethyl)phenyl]methyl}-7,7-dimethyl-2-{1-[5-(morpholin-4-yl-carbonyl)pyrimidin-2-yl]piperidin-4-yl}-5,6,7,8-tetrahydroquinolin-5-ol]",19 nM
8,"CC1(C)Cc2nc(C3CCN(c4ncc(CCCC(F)(F)F)cn4)CC3)c([C@@H](F)c3ccc(C(F)(F)F)cc3)c(C3CCC(F)(F)CC3)c2[C@@H](O)C1 (single isomer, unassigned) [Example 33, 4-(4,4-Difluorocyclohexyl)-3-{fluoro[4-(trifluoromethyl)phenyl]methyl}-7,7-dimethyl-2-{1-[5-(4,4,4-trifluorobutyl)pyrimidin-2-yl]piperidin-4-yl}-5,6,7,8-tetrahydroquinolin-5-ol]",48 nM
9,"Cc1noc(-c2cnc(N3CCC(c4nc5c(c(C6CCC(F)(F)CC6)c4[C@@H](F)c4ccc(C(F)(F)F)cc4)[C@@H](O)CC(C)(C)C5)CC3)nc2)n1 (single isomer, unassigned) [Example 35, 4-(4,4-Difluorocyclohexyl)-3-{fluoro[4-(trifluoromethyl)phenyl]methyl}-7,7-dimethyl-2-{1-[5-(3-methyl-1,2,4-oxadiazol-5-yl)pyrimidin-2-yl]piperidin-4-yl}-5,6,7,8-tetrahydroquinolin-5-ol]",88 nM
10,"CN(CCO)Cc1cnc(N2CCC(c3nc4c(c(C5CCC(F)(F)CC5)c3[C@@H](F)c3ccc(C(F)(F)F)cc3)[C@@H](O)CC(C)(C)C4)CC2)nc1 (single isomer, unassigned) [Example 36, (−)-4-(4,4-difluorocyclohexyl)-3-{fluoro[4-(trifluoromethyl)phenyl]methyl}-2-{1-(5-{[(2-hydroxyethyl)(methyl)amino]methyl}pyrimidine-2-yl)piperidin-4-yl}-7,7-dimethyl-5,6,7,8-tetrahydroquinoline-5-ol]",35 nM
11,"CC1(C)Cc2nc(C3CCN(c4ncc(OC[C@H](O)CO)cn4)CC3)c([C@@H](F)c3ccc(C(F)(F)F)cc3)c(C3CCC(F)(F)CC3)c2[C@@H](O)C1 (single isomer, unassigned) [Example 40]",11 nM

# Continued by falling IC50, values first:
row,IC50,Compound
1,78 nM,"CC(C)OCc1cnc(N2CCC(c3nc4c(c(C5CCC(F)(F)CC5)c3[C@@H](F)c3ccc(C(F)(F)F)cc3)[C@@H](O)CC(C)(C)C4)CC2)nc1 (single isomer, unassigned) [Example 28, (−)-4-(4,4-difluorocyclohexyl)-3-{fluoro[4-(trifluoromethyl)phenyl]methyl}-7,7-dimethyl-2-(1-{5-[(propan-2-yloxy)methyl]pyrimidine-2-yl}piperidin-4-yl)-5,6,7,8-tetrahydroquinoline-5-ol]"
2,54 nM,"CC(C)/C=C/c1cnc(N2CCC(c3nc4c(c(C5CCC(F)(F)CC5)c3[C@@H](F)c3ccc(C(F)(F)F)cc3)[C@@H](O)CC(C)(C)C4)CC2)nc1 (single isomer, unassigned) [Example 34, (−)-4-(4,4-Difluorocyclohexyl)-3-{fluoro[4-(trifluoromethyl)phenyl]methyl}-7,7-dimethyl-2-(1-{5-[(1E)-3-methylbut-1-ene-1-yl]pyrimidin-2-yl}piperidin-4-yl)-5,6,7,8-tetrahydroquinolin-5-ol]"
3,45 nM,"CCOCc1cnc(N2CCC(c3nc4c(c(C5CCC(F)(F)CC5)c3[C@@H](F)c3ccc(C(F)(F)F)cc3)[C@@H](O)CC(C)(C)C4)CC2)nc1 (single isomer, unassigned) [Example 26, (−)-4-(4,4-Difluorocyclohexyl)-2-{1-[5-(ethoxymethyl)pyrimidin-2-yl]piperidin-4-yl}-3-{fluoro[4-(trifluoromethyl)phenyl]methyl}-7,7-dimethyl-5,6,7,8-tetrahydroquinolin-5-ol]"
4,29 nM,"CN(C)C(=O)c1cnc(N2CCC(c3nc4c(c(C5CCC(F)(F)CC5)c3[C@@H](F)c3ccc(C(F)(F)F)cc3)[C@@H](O)CC(C)(C)C4)CC2)nc1 (single isomer, unassigned) [Example 31, (−)-4-(4,4-Difluorocyclohexyl)-2-{1-[5-(dimethylcarbamoyl)pyrimidin-2-yl]piperidin-4-yl}-3-{fluoro[4-(trifluoromethyl)phenyl]methyl}-7,7-dimethyl-5,6,7,8-tetrahydroquinolin-5-ol]"
5,10 nM,"CN1CCC(Oc2cnc(N3CCC(c4nc5c(c(C6CCC(F)(F)CC6)c4[C@@H](F)c4ccc(C(F)(F)F)cc4)[C@@H](O)CC(C)(C)C5)CC3)nc2)CC1 (single isomer, unassigned) [Example 38, 4-(4,4-Difluorocyclohexyl)-3-{fluoro[4-(trifluoromethyl)phenyl]methyl}-7,7-dimethyl-2-(1-{5-[(1-methylpiperidin-4-yl)oxy]pyrimidin-2-yl}piperidin-4-yl)-5,6,7,8-tetrahydroquinolin-5-ol]"

# — US9187450B2, “Substituted pyridine compound” (Daiichi Sankyo Company, Limited, priority 2010, dated 2015)
